Results on three molecules are retold here after publication PMC11903690 (Scientific Reports, 2025).

Holding throughout (experiment): microbe, parasite or virus in culture
Assay type in all cases: cell-based

Experiment [1] has as its system SARS-CoV-2 alpha (B.1.1.7). Particulars: for Selectivity index: SARS-CoV-2α, HEK293TA cells; for EC50: Severe acute respiratory syndrome coronavirus 2.
Experiment [2] concerns SARS-CoV-2 delta (B.1.617.2). Particulars: for Selectivity index: SARS-CoV-2δ, HEK293TA cells; for EC50: Severe acute respiratory syndrome coronavirus 2.
Experiment [3] concerns SARS-CoV-2gamma (P.1). Conditions: for Selectivity index: SARS-CoV-2γ, HEK293TA cells; for EC50: Severe acute respiratory syndrome coronavirus 2.

In the case of `CC(C)C(=O)OC[C@H]1O[C@@H](n2ccc(NO)nc2=O)[C@H](O)[C@@H]1O` [Molnupiravir], the values for the Selectivity index in experiment [1], in experiment [2] and in experiment [3] were 14.7, 13 and 13, respectively. The EC50 in experiment [1] worked out at 400 nM; in experiment [2] it was 450 nM; in experiment [3], 520 nM.
As to `CCC(CC)COC(=O)[C@H](C)N[P@](=O)(OC[C@H]1O[C@@](C#N)(c2ccc3c(N)ncnn23)[C@H](O)[C@@H]1O)Oc1ccccc1` [Remdesivir], the EC50 in experiment [1], in experiment [2] and in experiment [3] was less than 78 nM throughout.
For `O=C(CCCCCCCCc1ccc(O)c(O)c1)c1c(O)cccc1O` [Compound 1, Malabaricone C], the Selectivity index in experiment [1] was found to be 2.6; in experiment [2] it was 3.4; in experiment [3] it was 3.6. Besides, the EC50 in experiment [1] was found to be 1900 nM; in experiment [2], 1900 nM; in experiment [3], 1700 nM.

For orientation: EC50 means the midpoint of the concentration-response curve. Read a high EC50 as a need for much substance.
